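Cultured in 96-well plates, cells were exposed to test compound for 48 hours across five concentrations. GI50 is the concentration that inhibits growth by half.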 Active and inactive are the calls of the source. No stated cut-off is given here; in the data, active = GI50 up to about 1.1 µM and inactive = higher.
What was measured:
Assay in all cases: NCI tumour cell line growth inhibition, 48 h
786-0 = tested on: 786-0
A498 = tested on: A498
A549 = tested on: A549
ACHN = tested on: ACHN
BT-549 = tested on: BT-549
CAKI-1 = tested on: CAKI-1
COLO 205 = tested on: COLO 205
DU-145 = tested on: DU-145
EKVX = tested on: EKVX
HCC 2998 = tested on: HCC 2998
HCT-116 = tested on: HCT-116
HCT-15 = tested on: HCT-15
HL-60 = tested on: HL-60
HOP-62 = tested on: HOP-62
HT-29 = tested on: HT-29
Hs-578T = tested on: Hs-578T
IGROV-1 = tested on: IGROV-1
KM12 = tested on: KM12
LOX IMVI = tested on: LOX IMVI
M14 = tested on: M14
MCF7 = tested on: MCF7
MDA-MB-231 = tested on: MDA-MB-231
MDA-MB-435 = tested on: MDA-MB-435
MDA-N = tested on: MDA-N
MOLT-4 = tested on: MOLT-4
Malme-3M = tested on: Malme-3M
NCI-H226 = tested on: NCI-H226
NCI-H23 = tested on: NCI-H23
NCI-H460 = tested on: NCI-H460
NCI-H522 = tested on: NCI-H522
NCI/ADR-RES = tested on: NCI/ADR-RES
OVCAR-3 = tested on: OVCAR-3
OVCAR-4 = tested on: OVCAR-4
OVCAR-5 = tested on: OVCAR-5
OVCAR-8 = tested on: OVCAR-8
PC-3 = tested on: PC-3
RPMI-8226 = tested on: RPMI-8226
SF-268 = tested on: SF-268
SF-295 = tested on: SF-295
SF-539 = tested on: SF-539
SK-MEL-28 = tested on: SK-MEL-28
SK-MEL-2 = tested on: SK-MEL-2
SK-MEL-5 = tested on: SK-MEL-5
SK-OV-3 = tested on: SK-OV-3
SN12C = tested on: SN12C
SNB-19 = tested on: SNB-19
SNB-75 = tested on: SNB-75
SR = tested on: SR
SW-620 = tested on: SW-620
T47D = tested on: T47D
TK-10 = tested on: TK-10
U-251 = tested on: U-251
UACC-257 = tested on: UACC-257
UACC-62 = tested on: UACC-62
UO-31 = tested on: UO-31
CCRF-CEM = tested on: CCRF-CEM
K562 = tested on: K562
RXF 393 = tested on: RXF 393

COC(=O)c1ccccc1/C=C1\Cc2cc3c(cc2C1=O)CCC3
GI50 (786-0): 38.4 µM (inactive)
GI50 (A498): 61.2 µM (inactive)
GI50 (A549): > 100 µM (inactive)
GI50 (ACHN): > 100 µM (inactive)
GI50 (BT-549): > 100 µM (inactive)
GI50 (CAKI-1): > 100 µM (inactive)
GI50 (COLO 205): > 100 µM (inactive)
GI50 (DU-145): > 100 µM (inactive)
GI50 (EKVX): > 100 µM (inactive)
GI50 (HCC 2998): > 100 µM (inactive)
GI50 (HCT-116): 45 µM (inactive)
GI50 (HCT-15): 29.8 µM
GI50 (HL-60): > 100 µM (inactive)
GI50 (HOP-62): 29.6 µM (inactive)
GI50 (HT-29): > 100 µM (inactive)
GI50 (Hs-578T): > 10 µM (inactive)
GI50 (IGROV-1): > 100 µM (inactive)
GI50 (KM12): > 100 µM (inactive)
GI50 (LOX IMVI): > 100 µM (inactive)
GI50 (M14): 24 µM (inactive)
GI50 (MCF7): 40.6 µM (inactive)
GI50 (MDA-MB-231): > 100 µM (inactive)
GI50 (MDA-MB-435): 3.89 µM (inactive)
GI50 (MDA-N): 3.78 µM (inactive)
GI50 (MOLT-4): > 100 µM (inactive)
GI50 (Malme-3M): > 100 µM (inactive)
GI50 (NCI-H226): > 100 µM (inactive)
GI50 (NCI-H23): > 100 µM (inactive)
GI50 (NCI-H460): > 100 µM (inactive)
GI50 (NCI-H522): 68.9 µM (inactive)
GI50 (NCI/ADR-RES): > 100 µM (inactive)
GI50 (OVCAR-3): > 100 µM (inactive)
GI50 (OVCAR-4): > 100 µM (inactive)
GI50 (OVCAR-5): > 100 µM (inactive)
GI50 (OVCAR-8): > 100 µM (inactive)
GI50 (PC-3): 8.51 µM (inactive)
GI50 (RPMI-8226): > 100 µM (inactive)
GI50 (SF-268): 68.5 µM (inactive)
GI50 (SF-295): 43.5 µM (inactive)
GI50 (SF-539): > 100 µM (inactive)
GI50 (SK-MEL-28): > 100 µM (inactive)
GI50 (SK-MEL-2): 20.7 µM (inactive)
GI50 (SK-MEL-5): > 100 µM (inactive)
GI50 (SK-OV-3): > 100 µM (inactive)
GI50 (SN12C): > 100 µM (inactive)
GI50 (SNB-19): > 100 µM (inactive)
GI50 (SNB-75): 34.9 µM (inactive)
GI50 (SR): > 100 µM (inactive)
GI50 (SW-620): > 100 µM (inactive)
GI50 (T47D): > 100 µM (inactive)
GI50 (TK-10): 59.8 µM (inactive)
GI50 (U-251): 43 µM (inactive)
GI50 (UACC-257): > 100 µM (inactive)
GI50 (UACC-62): 32.1 µM (inactive)
GI50 (UO-31): > 100 µM (inactive)

CCOC(=O)CNC1=Nc2ccccc2C(=O)N2CSCC12 (stereo unspecified)
GI50 (786-0): > 100 µM (inactive)
GI50 (A498): > 100 µM (inactive)
GI50 (A549): > 100 µM (inactive)
GI50 (ACHN): > 100 µM (inactive)
GI50 (BT-549): > 100 µM (inactive)
GI50 (CAKI-1): > 100 µM (inactive)
GI50 (CCRF-CEM): > 100 µM (inactive)
GI50 (COLO 205): > 100 µM (inactive)
GI50 (DU-145): > 100 µM (inactive)
GI50 (EKVX): > 100 µM (inactive)
GI50 (HCC 2998): > 100 µM (inactive)
GI50 (HCT-116): > 100 µM (inactive)
GI50 (HCT-15): > 100 µM
GI50 (HOP-62): > 100 µM (inactive)
GI50 (HT-29): > 100 µM (inactive)
GI50 (Hs-578T): > 100 µM (inactive)
GI50 (IGROV-1): > 100 µM (inactive)
GI50 (K562): > 100 µM (inactive)
GI50 (KM12): > 100 µM (inactive)
GI50 (LOX IMVI): > 100 µM (inactive)
GI50 (M14): > 100 µM (inactive)
GI50 (MCF7): > 100 µM (inactive)
GI50 (MDA-MB-231): > 100 µM (inactive)
GI50 (MDA-MB-435): > 100 µM (inactive)
GI50 (MDA-N): > 100 µM (inactive)
GI50 (MOLT-4): > 100 µM (inactive)
GI50 (Malme-3M): > 100 µM (inactive)
GI50 (NCI-H226): > 100 µM (inactive)
GI50 (NCI-H460): > 100 µM (inactive)
GI50 (NCI-H522): > 100 µM (inactive)
GI50 (NCI/ADR-RES): > 100 µM (inactive)
GI50 (OVCAR-3): > 100 µM (inactive)
GI50 (OVCAR-4): > 100 µM (inactive)
GI50 (OVCAR-5): > 100 µM (inactive)
GI50 (OVCAR-8): > 100 µM (inactive)
GI50 (PC-3): > 100 µM (inactive)
GI50 (RPMI-8226): > 100 µM (inactive)
GI50 (RXF 393): > 100 µM (inactive)
GI50 (SF-268): > 100 µM (inactive)
GI50 (SF-295): > 100 µM (inactive)
GI50 (SK-MEL-28): > 100 µM (inactive)
GI50 (SK-MEL-2): > 100 µM (inactive)
GI50 (SK-MEL-5): > 100 µM (inactive)
GI50 (SK-OV-3): > 100 µM (inactive)
GI50 (SN12C): > 100 µM (inactive)
GI50 (SNB-19): > 100 µM (inactive)
GI50 (SNB-75): > 100 µM (inactive)
GI50 (SR): > 100 µM (inactive)
GI50 (SW-620): > 100 µM (inactive)
GI50 (T47D): > 100 µM (inactive)
GI50 (TK-10): > 100 µM (inactive)
GI50 (U-251): > 100 µM (inactive)
GI50 (UACC-257): > 100 µM (inactive)
GI50 (UACC-62): > 100 µM (inactive)
GI50 (UO-31): > 100 µM (inactive)

CC(=O)OCC(=O)[C@@]12OC(C)(C)O[C@@H]1C[C@H]1[C@@H]3CC=C4C[C@@H](O)CC[C@]4(C)[C@H]3CC[C@@]12C
GI50 (786-0): 41.4 µM (inactive)
GI50 (A498): 32.1 µM (inactive)
GI50 (A549): > 100 µM (inactive)
GI50 (ACHN): 92.9 µM (inactive)
GI50 (BT-549): 31.6 µM (inactive)
GI50 (CAKI-1): > 100 µM (inactive)
GI50 (CCRF-CEM): > 100 µM (inactive)
GI50 (COLO 205): > 100 µM (inactive)
GI50 (DU-145): 49.2 µM (inactive)
GI50 (EKVX): 29.6 µM (inactive)
GI50 (HCT-116): 68.1 µM (inactive)
GI50 (HCT-15): > 100 µM
GI50 (HL-60): > 100 µM (inactive)
GI50 (HOP-62): 32.2 µM (inactive)
GI50 (HT-29): > 100 µM (inactive)
GI50 (Hs-578T): 22.4 µM (inactive)
GI50 (IGROV-1): 50.5 µM (inactive)
GI50 (K562): > 100 µM (inactive)
GI50 (KM12): > 100 µM (inactive)
GI50 (LOX IMVI): > 100 µM (inactive)
GI50 (M14): > 100 µM (inactive)
GI50 (MCF7): > 100 µM (inactive)
GI50 (MDA-MB-231): 61.5 µM (inactive)
GI50 (MDA-MB-435): > 100 µM (inactive)
GI50 (MDA-N): > 100 µM (inactive)
GI50 (MOLT-4): > 100 µM (inactive)
GI50 (Malme-3M): > 100 µM (inactive)
GI50 (NCI-H226): > 100 µM (inactive)
GI50 (NCI-H23): 57.7 µM (inactive)
GI50 (NCI-H522): 57.9 µM (inactive)
GI50 (NCI/ADR-RES): 66.5 µM (inactive)
GI50 (OVCAR-3): > 100 µM (inactive)
GI50 (OVCAR-4): > 100 µM (inactive)
GI50 (OVCAR-5): > 100 µM (inactive)
GI50 (OVCAR-8): 36.7 µM (inactive)
GI50 (PC-3): > 100 µM (inactive)
GI50 (RPMI-8226): 59.8 µM (inactive)
GI50 (RXF 393): 19.9 µM (inactive)
GI50 (SF-268): 31.6 µM (inactive)
GI50 (SF-295): 33.1 µM (inactive)
GI50 (SF-539): 30.8 µM (inactive)
GI50 (SK-MEL-28): > 100 µM (inactive)
GI50 (SK-MEL-2): > 100 µM (inactive)
GI50 (SK-MEL-5): > 100 µM (inactive)
GI50 (SK-OV-3): 38.3 µM (inactive)
GI50 (SN12C): 43.9 µM (inactive)
GI50 (SNB-19): 39.9 µM (inactive)
GI50 (SNB-75): 13.9 µM (inactive)
GI50 (SR): > 100 µM (inactive)
GI50 (SW-620): > 100 µM (inactive)
GI50 (T47D): 35.5 µM (inactive)
GI50 (TK-10): 40.3 µM (inactive)
GI50 (U-251): 58.6 µM (inactive)
GI50 (UACC-257): > 100 µM (inactive)
GI50 (UACC-62): > 100 µM (inactive)
GI50 (UO-31): > 100 µM (inactive)

From ChEMBL document CHEMBL1201862, “PubChem BioAssay data set” (2004)
